Numbers after ± are expanded uncertainties.
Conditions: for mass density / viscosity: Liquid; for mass density: Vibrating tube method; for surface tension liquid-gas: Pendant drop shape; for viscosity: Concentric cylinders viscometry

SMILES: CC(=O)[O-].CCCCn1cc[n+](C)c1 [1-butyl-3-methylimidazolium acetate]
- mass density (313.16 K, 109981 kPa): 1083.53 ± 6.7 kg/m3
- mass density (313.17 K, 5238 kPa): 1045.49 ± 5.9 kg/m3
- mass density (313.18 K, 1226 kPa): 1043.82 ± 5.9 kg/m3
- surface tension liquid-gas (313.2 K): 36.88 ± 1.4 mN/m
- surface tension liquid-gas (318.2 K): 36.63 ± 1.4 mN/m
- surface tension liquid-gas (323.2 K): 36.42 ± 1.4 mN/m
- surface tension liquid-gas (328.2 K): 36.2 ± 1.4 mN/m
- mass density (333.13 K, 101.33 kPa): 1031.21 ± 5.8 kg/m3
- mass density (333.14 K, 9567 kPa): 1035.37 ± 5.8 kg/m3
- mass density (333.15 K, 101 kPa): 1031.21 ± 5.8 kg/m3
- viscosity (333.15 K, 101.33 kPa): 53.5 ± 1.7 mPa·s
- mass density (333.15 K, 628 kPa): 1031.45 ± 5.8 kg/m3
- mass density (333.15 K, 4971 kPa): 1033.37 ± 5.8 kg/m3
- mass density (333.15 K, 20116 kPa): 1039.9 ± 5.9 kg/m3
- mass density (333.15 K, 29979 kPa): 1044.01 ± 6 kg/m3
- mass density (333.15 K, 49981 kPa): 1052.04 ± 6.1 kg/m3
- mass density (333.15 K, 59681 kPa): 1055.77 ± 6.2 kg/m3
- mass density (333.15 K, 70024 kPa): 1059.64 ± 6.2 kg/m3
- mass density (333.15 K, 79610 kPa): 1063.12 ± 6.3 kg/m3
- mass density (333.16 K, 39561 kPa): 1047.91 ± 6 kg/m3
- mass density (333.16 K, 89976 kPa): 1066.77 ± 6.4 kg/m3
- mass density (333.17 K, 99080 kPa): 1069.88 ± 6.5 kg/m3
- mass density (333.17 K, 109991 kPa): 1073.48 ± 6.5 kg/m3
- mass density (333.17 K, 120185 kPa): 1076.74 ± 6.6 kg/m3
- mass density (333.17 K, 129974 kPa): 1079.75 ± 6.7 kg/m3
- mass density (333.17 K, 139981 kPa): 1082.73 ± 6.8 kg/m3
- mass density (343.16 K, 101.33 kPa): 1025.2 ± 5.7 kg/m3
- mass density (353.12 K, 1410 kPa): 1019.9 ± 5.6 kg/m3
- mass density (353.12 K, 139714 kPa): 1072.82 ± 6.6 kg/m3
- mass density (353.13 K, 120068 kPa): 1066.76 ± 6.5 kg/m3
- mass density (353.13 K, 130015 kPa): 1069.89 ± 6.5 kg/m3
- mass density (353.14 K, 4959 kPa): 1021.56 ± 5.6 kg/m3
- mass density (353.14 K, 99015 kPa): 1059.73 ± 6.3 kg/m3
- mass density (353.14 K, 109983 kPa): 1063.46 ± 6.4 kg/m3
- mass density (353.15 K, 101 kPa): 1019.28 ± 5.6 kg/m3
- viscosity (353.15 K, 101.33 kPa): 24.4 ± 0.8 mPa·s
- mass density (353.15 K, 101.33 kPa): 1019.28 ± 5.6 kg/m3
- mass density (353.15 K, 60022 kPa): 1045.25 ± 6 kg/m3
- mass density (353.15 K, 70021 kPa): 1049.15 ± 6.1 kg/m3
- mass density (353.15 K, 80038 kPa): 1052.92 ± 6.2 kg/m3
- mass density (353.15 K, 90002 kPa): 1056.56 ± 6.2 kg/m3
- mass density (353.16 K, 9951 kPa): 1023.86 ± 5.7 kg/m3
- mass density (353.16 K, 49992 kPa): 1041.22 ± 5.9 kg/m3
- mass density (353.17 K, 20183 kPa): 1028.49 ± 5.7 kg/m3
- mass density (353.17 K, 29998 kPa): 1032.8 ± 5.8 kg/m3
- mass density (353.18 K, 39534 kPa): 1036.88 ± 5.9 kg/m3
- mass density (373.14 K, 19875 kPa): 1017.03 ± 5.6 kg/m3
- mass density (373.14 K, 139805 kPa): 1063.23 ± 6.5 kg/m3
- mass density (373.15 K, 101 kPa): 1007.58 ± 5.5 kg/m3
- viscosity (373.15 K, 101.33 kPa): 13.8 ± 0.4 mPa·s
- mass density (373.15 K, 9977 kPa): 1012.37 ± 5.5 kg/m3
- mass density (373.15 K, 99180 kPa): 1049.72 ± 6.2 kg/m3
- mass density (373.15 K, 110012 kPa): 1053.53 ± 6.2 kg/m3
- mass density (373.15 K, 120856 kPa): 1057.2 ± 6.3 kg/m3
- mass density (373.15 K, 129989 kPa): 1060.16 ± 6.4 kg/m3
- mass density (373.16 K, 4871 kPa): 1009.91 ± 5.5 kg/m3
- mass density (373.16 K, 29995 kPa): 1021.67 ± 5.7 kg/m3
- mass density (373.16 K, 49968 kPa): 1030.42 ± 5.8 kg/m3
- mass density (373.16 K, 59224 kPa): 1034.29 ± 5.9 kg/m3
- mass density (373.16 K, 90022 kPa): 1046.37 ± 6.1 kg/m3
- mass density (373.17 K, 2297 kPa): 1008.66 ± 5.5 kg/m3
- mass density (373.17 K, 39711 kPa): 1025.99 ± 5.7 kg/m3
- mass density (373.17 K, 69994 kPa): 1038.66 ± 5.9 kg/m3
- mass density (373.18 K, 79589 kPa): 1042.42 ± 6 kg/m3
- mass density (393.13 K, 5180 kPa): 998.69 ± 5.4 kg/m3
- mass density (393.14 K, 60153 kPa): 1024.29 ± 5.7 kg/m3
- mass density (393.14 K, 69980 kPa): 1028.4 ± 5.8 kg/m3
- mass density (393.14 K, 80125 kPa): 1032.49 ± 5.9 kg/m3
- mass density (393.14 K, 120002 kPa): 1047.09 ± 6.2 kg/m3
- mass density (393.15 K, 101 kPa): 996.11 ± 5.4 kg/m3
- mass density (393.15 K, 3086 kPa): 997.63 ± 5.4 kg/m3
- mass density (393.15 K, 10081 kPa): 1001.16 ± 5.4 kg/m3
- mass density (393.15 K, 20117 kPa): 1006.09 ± 5.5 kg/m3
- mass density (393.15 K, 30011 kPa): 1010.81 ± 5.5 kg/m3
- mass density (393.15 K, 40130 kPa): 1015.49 ± 5.6 kg/m3
- mass density (393.15 K, 49985 kPa): 1019.89 ± 5.7 kg/m3
- mass density (393.15 K, 90011 kPa): 1036.33 ± 5.9 kg/m3
- mass density (393.15 K, 109214 kPa): 1043.37 ± 6.1 kg/m3
- mass density (393.15 K, 130005 kPa): 1050.39 ± 6.2 kg/m3
- mass density (393.16 K, 99789 kPa): 1039.98 ± 6 kg/m3
- mass density (393.16 K, 139958 kPa): 1053.52 ± 6.3 kg/m3
- mass density (413.12 K, 2006 kPa): 985.88 ± 5.2 kg/m3
- mass density (413.12 K, 5092 kPa): 987.51 ± 5.3 kg/m3
- mass density (413.13 K, 20186 kPa): 995.28 ± 5.3 kg/m3
- mass density (413.14 K, 30014 kPa): 1000.15 ± 5.4 kg/m3
- mass density (413.14 K, 40204 kPa): 1005.02 ± 5.5 kg/m3
- mass density (413.14 K, 49979 kPa): 1009.54 ± 5.5 kg/m3
- mass density (413.14 K, 60179 kPa): 1014.09 ± 5.6 kg/m3
- mass density (413.14 K, 70022 kPa): 1018.33 ± 5.7 kg/m3
- mass density (413.14 K, 99791 kPa): 1030.18 ± 5.9 kg/m3
- mass density (413.14 K, 119957 kPa): 1037.4 ± 6 kg/m3
- mass density (413.14 K, 139956 kPa): 1043.92 ± 6.1 kg/m3
- mass density (413.15 K, 101 kPa): 984.86 ± 5.2 kg/m3
- mass density (413.15 K, 79800 kPa): 1022.54 ± 5.7 kg/m3
- mass density (413.15 K, 90200 kPa): 1026.45 ± 5.8 kg/m3
- mass density (413.15 K, 109956 kPa): 1033.9 ± 5.9 kg/m3
- mass density (413.15 K, 129954 kPa): 1040.74 ± 6.1 kg/m3
- mass density (413.16 K, 10624 kPa): 990.4 ± 5.3 kg/m3

Reference: the NIST ThermoML archive (doi:10.1016/j.fluid.2014.10.015)
